Reference: patent US20080045504A1, “Benzonitrile Derivatives to Treat Musculoskeletal Frailty” (PFIZER PRODUCTS INC., priority 2004, published 2008)

How the values were obtained:
[1] = molecular target: T1, recombinant human androgen receptor (hAR) (Homo sapiens, UniProt P10275); experiment: Human androgen receptor binding analysis (3H-DHT competitive binding)
T1 construct: made in house; host or cells: baculovirus/Sf9 insect cells (crude extract)
T1 sequence (P10275 1-920): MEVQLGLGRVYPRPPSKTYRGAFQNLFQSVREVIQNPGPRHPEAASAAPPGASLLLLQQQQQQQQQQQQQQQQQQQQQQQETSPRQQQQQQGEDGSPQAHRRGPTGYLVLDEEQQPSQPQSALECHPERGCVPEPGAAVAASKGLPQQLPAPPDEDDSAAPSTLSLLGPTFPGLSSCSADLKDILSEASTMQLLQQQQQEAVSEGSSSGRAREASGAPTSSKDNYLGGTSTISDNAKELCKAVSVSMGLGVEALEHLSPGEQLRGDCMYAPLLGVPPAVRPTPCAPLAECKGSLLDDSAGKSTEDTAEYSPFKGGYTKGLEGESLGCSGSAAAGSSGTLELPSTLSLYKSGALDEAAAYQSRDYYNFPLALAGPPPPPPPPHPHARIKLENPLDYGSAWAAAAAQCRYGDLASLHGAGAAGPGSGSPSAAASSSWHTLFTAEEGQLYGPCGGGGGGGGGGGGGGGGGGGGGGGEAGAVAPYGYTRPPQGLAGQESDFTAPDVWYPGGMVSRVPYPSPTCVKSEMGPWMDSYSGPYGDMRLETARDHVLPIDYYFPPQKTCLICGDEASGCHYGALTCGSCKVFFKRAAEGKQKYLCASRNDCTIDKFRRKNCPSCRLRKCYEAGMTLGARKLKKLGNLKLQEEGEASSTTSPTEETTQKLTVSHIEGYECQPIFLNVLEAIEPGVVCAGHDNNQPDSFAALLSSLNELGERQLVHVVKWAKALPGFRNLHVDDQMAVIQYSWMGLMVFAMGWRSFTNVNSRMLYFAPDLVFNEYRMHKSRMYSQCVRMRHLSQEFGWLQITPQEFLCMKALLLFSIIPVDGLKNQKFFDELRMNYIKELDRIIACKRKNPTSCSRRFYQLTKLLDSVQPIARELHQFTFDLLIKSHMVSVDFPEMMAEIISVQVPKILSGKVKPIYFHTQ
Procedure: The following is a brief description of the assay that determines the affinity of a compound for the recombinant human androgen receptor (hAR). Competitive binding analysis is performed on baculovirus/Sf9 generated hAR extracts in the presence or absence of differing concentrations of drug and a fixed concentration of ^3H-dihydrotestosterone (^3H-DHT) as tracer. This binding assay method is a modification of a protocol previously described (Chang, et. al. J. Steroid Biochem. 20(1):11-17 1984). Briefly, progressively decreasing concentrations of compounds are incubated in the presence of hAR extract (Chang et al. P.N.A.S. Vol. 89, pp. 5546-5950, 1992), hydroxylapatite and 1 nM ^3H-DHT for one hour at 4° C. Subsequently, the binding reactions are washed three times to completely remove excess unbound ^3H-DHT. hAR bound ^3H-DHT levels are determined in the presence of compounds (=competitive binding) and compared to levels bound when no competitor is present (=maximum binding). Compound binding affinity to the hAR is expressed as the concentration of compound at which one half of the maximum binding is inhibited (the IC50).

[2] = tested on: orchiectomized (ORX) immature male rat; experiment: Orchiectomized immature rat assay (levator ani and ventral prostate weights); format: in vivo, Sprague Dawley rat; details: 4 days, TP 10 mg/kg = 100%, ORX control = 0%; for % TP Control LA: levator ani weight; for % TP Control VP: ventral prostate weight
Procedure: All animal studies were performed in accordance with the Guide for Care and Use of Laboratory Animals (National Research Council, 1996). Twenty-one day old male Sprague Dawley rats were acquired from Taconic, Inc, Germantown, N.Y. Rats were housed five per cage at standard vivarium conditions ([…], 12-h light/dark cycle), with normal chow diet and tap water ad libitum. At 25 days of age, the rats underwent bilateral orchiectomy surgery (ORX) after sedation with 3-5% Isoflurane. Following the surgery, the animals were treated immediately by daily subcutaneous (s.c.) injection with vehicle (sesame oil), testosterone propionate (TP, 10 mg/kg) and test compounds. The dosage of test compound administered is in mg/kg. At the end of the 4 days of administrations, the animals were sacrificed in a carbon dioxide chamber, the ventral prostate (VP) and levator ani muscle complex (LA) were removed and weighed. The increase in the weights of VP or LA by TP was expressed as 100%, and the ORX control as baseline, 0%; the response of the test compounds was calculated as the percentage increase compared to TP.

SMILES	IC50 [1] [nM]	% TP Control LA ([2]; 3 mg/kg s.c.) [%]	% TP Control LA ([2]; 10 mg/kg s.c.) [%]	% TP Control LA ([2]; 30 mg/kg s.c.) [%]	% TP Control VP ([2]; 3 mg/kg s.c.) [%]	% TP Control VP ([2]; 10 mg/kg s.c.) [%]	% TP Control VP ([2]; 30 mg/kg s.c.) [%]
CC[C@@H](C)N(C)c1ccc(C#N)c(C(F)(F)F)c1 [Example 7, 4-((R)-sec-Butyl-methyl-amino)-2-trifluoromethyl-benzonitrile]	1.09	40	65	89	23	24	39
N#Cc1ccc(N2CCCCCC2)cc1C#N [Example 52, 4-Azepan-1-yl-phthalonitrile]	5.04	–	–	–	–	–	–
CCCN(CCC)c1cc(F)c(C#N)c(F)c1 [Example 53, 2,6-Difluoro-4-(dipropyl-amino)-benzonitrile]	4.06	–	–	–	–	–	–
